Read-outs that look alike come from different tables or passages of the source.
Experiments:
A431 cells (EGFR WT) = assay: A431 cell proliferation inhibition assay (CellTiter-Glo); type: cell-based; details: Homo sapiens
Experimental: A431 Cell Proliferation Inhibition Assay
In the assay, the inhibition effect of the compounds on the proliferation of A431 cells was tested by adopting a CellTiter-Glo method, and the concentration IC50 of the compound for inhibiting half maximal growth of cells was obtained.
A431 cells, purchased from ATCC.
DMEM medium, fetal bovine serum (FBS), and Penicillin-Streptomycin, purchased from GIBCO.
(§1) Brigatinib, purchased from Selleck.
(§2) CellTiter-Glo reagent, purchased from Promega.
1) A431 cells were seeded in a 384-well plate at a density of 800 cells/well with 30 μL/well, and the plate was cultured in a cell incubator for 24 h (37° C., 5% CO2).
(§3) 2) Day 0: […] of gradiently-diluted compounds to be tested with a final concentration of DMSO of 0.1% was added to plate using Echo, and the plate was incubated in a cell incubator for 72 h (37° C., 5% CO2). […] of DMSO was added into each well in blank control group.
(§4) 3) Day 3: 30 μL Cell Titer-Glo reagent was added to each well, and the plate was in the dark under room temperature for 30 min.
(§5) 4) The chemiluminescent signal was detected by an Envision plate reader (PerkinElmer).
(§6) 5) Data analysis was performed using GraphPad Prism software to give the IC50 for compounds.

[1] = test system: Ba/F3_Del19/T790M/C797S cells; assay: Ba/F3_Del19/T790M/C797S cell proliferation inhibition assay (CellTiter-Glo); type: cell-based; details: Mus musculus
Experimental: Ba/F3_Del19/T790M/C797S Cell Proliferation Inhibition Assay
In the assay, the inhibition effect of the compounds on the proliferation of Ba/F3_Del19/T790M/C797S cells was tested by adopting a CellTiter-Glo method, and the concentration IC50 of the compound for inhibiting half maximal growth of cells was obtained.
Ba/F3_Del19/T790M/C797S, purchased from Kyinno Biotechnology Co., Ltd. 1640 medium, fetal bovine serum (FBS), Penicillin-Streptomyces, and GlutaMAX-I Supplement, purchased from GIBCO.
as §1, §2
1) Ba/F3_Del19/T790M/C797S cells were seeded in a 384-well plate at a density of 700 cells/well with 30 μL/well.
as §3, §4, §5
Data analysis was performed using GraphPad Prism 6 software to give the IC50 for compounds.

EGFR WT (wild type EGFR) = EGFR WT (wild type EGFR) (Homo sapiens (Human), UniProt P00533); assay: In vitro enzymatic TR-FRET (HTRF KinEASE-TK) kinase assay, EGFR WT; type: biochemical
Chain of EGFR WT (wild type EGFR) (P00533 25-1210): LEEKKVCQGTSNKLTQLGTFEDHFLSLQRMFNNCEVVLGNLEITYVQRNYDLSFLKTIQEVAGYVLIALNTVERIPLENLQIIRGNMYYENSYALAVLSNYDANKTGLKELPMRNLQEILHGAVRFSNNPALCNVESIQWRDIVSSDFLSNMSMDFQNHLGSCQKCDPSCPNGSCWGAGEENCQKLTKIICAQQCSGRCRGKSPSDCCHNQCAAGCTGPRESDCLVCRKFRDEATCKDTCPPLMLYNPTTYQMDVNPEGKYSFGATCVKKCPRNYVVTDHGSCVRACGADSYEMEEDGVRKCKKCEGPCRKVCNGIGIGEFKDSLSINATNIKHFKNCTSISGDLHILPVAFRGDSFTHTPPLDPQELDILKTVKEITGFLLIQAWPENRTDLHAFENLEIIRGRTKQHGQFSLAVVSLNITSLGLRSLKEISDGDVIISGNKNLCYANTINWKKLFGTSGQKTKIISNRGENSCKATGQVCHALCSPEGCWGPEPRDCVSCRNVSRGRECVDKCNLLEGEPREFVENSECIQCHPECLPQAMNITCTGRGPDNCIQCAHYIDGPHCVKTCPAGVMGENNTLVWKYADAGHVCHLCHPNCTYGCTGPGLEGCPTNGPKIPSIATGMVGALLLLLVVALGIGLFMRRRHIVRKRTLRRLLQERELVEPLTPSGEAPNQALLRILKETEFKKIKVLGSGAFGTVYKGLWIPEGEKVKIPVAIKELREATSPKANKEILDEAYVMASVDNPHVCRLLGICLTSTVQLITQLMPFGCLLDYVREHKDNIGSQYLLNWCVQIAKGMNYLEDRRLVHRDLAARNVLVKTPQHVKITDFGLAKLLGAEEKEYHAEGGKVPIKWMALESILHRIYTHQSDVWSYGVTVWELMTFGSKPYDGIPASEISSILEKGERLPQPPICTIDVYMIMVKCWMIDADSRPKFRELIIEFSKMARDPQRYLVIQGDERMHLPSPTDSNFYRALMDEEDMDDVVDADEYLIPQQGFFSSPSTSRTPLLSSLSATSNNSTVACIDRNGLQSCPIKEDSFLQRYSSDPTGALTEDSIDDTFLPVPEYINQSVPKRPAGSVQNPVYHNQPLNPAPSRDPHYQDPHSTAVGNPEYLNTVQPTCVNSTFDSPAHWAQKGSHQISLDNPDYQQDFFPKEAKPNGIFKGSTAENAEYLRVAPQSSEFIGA
Experimental: (I) In Vitro Enzymatic Experiment for EGFR WT and EGFR L858R/T790M/C797S
In the assay, the inhibition effect of the compound on the kinase activity of EGFR WT (wild type EGFR) and EGFR L858R/T790M/C797S was tested by adopting a time-resolved fluorescence resonance energy transfer (TR-FRET) method, and half maximal inhibitory concentration IC50 of the compound on the kinase activity of EGFR was obtained.
EGFR recombinase and EGFR L858R/T790M/C797S recombinase, purchased from Signalchem.
HTRF KinEASE-TK kit, purchased from Cisbio.
DTT, MnCl2, and MgCl2, purchased from Sigma.
ATP, purchased from Promega.
as §1
1) 1× working solution was prepared: 5 mM MgCl2; 1 mM DTT; 1 mM MnCl2 and 1× kinase buffer (in kit).
2) […] of gradiently-diluted compound was transferred to a 384-well plate using Echo 550 (Labcyte).
3) 5 μL of 2× EGFR WT or EGFR L858R/T790M/C797S recombinase solution was added to the 384-well plate, and the plate was incubated at room temperature for 10 min.
4) 5 μL of 2× TK-substrate-biotin substrate solution (containing ATP) was added to the 384-well plate, and the plate was incubated at room temperature for 40 min.
5) 5 μL of assay solution containing Sa-XL 665 HTRF and 5 μL of TK-antibody-Cryptatewas were added to the plate, and the plate was incubated at room temperature for 1 h.
6) The fluorescence signal values at 615 nm and 665 nm were measured for each well using an Envision microplate reader (PerkinElmer).
7) The ratio of fluorescence signal values at 665 nm and 615 nm was calculated for each well.
8) Data analysis was performed using GraphPad Prism software to give the IC50 for compounds.

[2] = test system: Ba/F3_L858R/T790M/C797S cells; assay: Ba/F3_L858R/T790M/C797S cell proliferation inhibition assay (CellTiter-Glo); type: cell-based; details: Mus musculus
Experimental: Ba/F3_L858R/T790M/C797S Cell Proliferation Inhibition Assay
In the assay, the inhibition effect of the compounds on the proliferation of Ba/F3_L858R/T790M/C797S cells was tested by adopting a CellTiter-Glo method, and the concentration IC50 of the compound for inhibiting half maximal growth of cells was obtained.
Ba/F3_L858R/T790M/C797S cells were constructed by Pharmaron Beijing Co., Ltd.
1640 medium, fetal bovine serum (FBS), Penicillin-Streptomyces, and GlutaMAX-I Supplement, purchased from GIBCO.
as §1, §2
1) Ba/F3_L858R/T790M/C797S cells were seeded in a 384-well plate at a density of 700 cells/well with 30 μL/well.
as §3, §4, §5, §6

[3] = A-431, cell proliferation, 72 h, CellTiter-Glo, read-out: A431 EGFR WT IC50
[4] = BaF3, cell proliferation, 72 h, CellTiter-Glo, read-out: Ba/F3 (Del19/T790M/C797S) IC50
[5] = kinase activity, TR-FRET, read-out: EGFR (WT) IC50
[6] = BaF3, cell proliferation, 72 h, CellTiter-Glo, read-out: Ba/F3 (L858R/T790M/C797S) IC50

IC50 (A431 cells (EGFR WT); [3])	IC50 [1, 4]	IC50 (EGFR WT (wild type EGFR); [5])	IC50 [2, 6]	Structure (SMILES)	IC50 (A431 cells (EGFR WT); A-431, 72 h, read-out: A431 EGFR WT IC50(nM))	IC50 ([1]; BaF3, 72 h, read-out: Ba/F3 (Del19/T790M/C797S) IC50(nM))	IC50 (EGFR WT (wild type EGFR))	IC50 ([2]; BaF3, 72 h, read-out: Ba/F3 (L858R/T790M/C797S) IC50(nM))
100 to 1000 nM	10 to 50 nM	1 to 10 nM	10 to 50 nM	COc1cc2c(cc1Nc1ncc(Cl)c(Nc3cccnc3P(C)(C)=O)n1)-c1cnn(C)c1CCN2C(C)C [Compound 100]	–	–	–	–
10 to 50 nM	< 10 nM	1 to 10 nM	< 10 nM	COc1cc2c(cc1Nc1nc(Nc3ccc4nccnc4c3P(C)(C)=O)c3sccc3n1)-c1cnn(C)c1CCN2C [Compound 61]	–	–	–	–
100 to 1000 nM	< 10 nM	1 to 10 nM	10 to 50 nM	COc1cc2c(cc1Nc1ncc(Br)c(Nc3ccc4nccnc4c3NS(C)(=O)=O)n1)-c1cn(C)nc1CCN2C(C)C [Compound 112]	–	–	–	–
100 to 1000 nM	< 10 nM	1 to 10 nM	< 10 nM	COc1cc2c(cc1Nc1ncc(Br)c(Nc3ccc4nccnc4c3P(C)(C)=O)n1)-c1cnn(C)c1CCN2C(C)C [Compound 6]	–	–	–	–
> 1000 nM	10 to 50 nM	1 to 10 nM	10 to 50 nM	COc1cc2c(cc1Nc1ncc(Br)c(Nc3ccc4nccnc4c3N(C)S(C)(=O)=O)n1)-c1cnn(C)c1CCN2C(C)C [Compound 131]	–	–	–	–
> 1000 nM	10 to 50 nM	10 to 50 nM	10 to 50 nM	COc1cc2c(cc1Nc1ncc(Br)c(Nc3cccc4c3NS(=O)(=O)C4)n1)-c1cnn(C)c1CCN2C(C)C [Compound 132]	–	–	–	–
100 to 1000 nM	< 10 nM	1 to 10 nM	10 to 50 nM	COc1cc2c(cc1Nc1ncc(Br)c(Nc3ccccc3P(C)(C)=O)n1)-c1cnn(C)c1CCN2C1CCN(C)CC1F (centres unmarked) [Compound 65]	–	–	–	–
50 to 100 nM	< 10 nM	1 to 10 nM	10 to 50 nM	COc1cc2c(cc1Nc1ncc(Br)c(Nc3ccccc3P(C)(C)=O)n1)-c1cnn(C)c1CCN2C1CCN(C)CC1 [Compound 47]	–	–	–	–
100 to 1000 nM	< 10 nM	1 to 10 nM	< 10 nM	COc1cc2c(cc1Nc1ncc(Br)c(Nc3ccc4nccnc4c3P(C)(C)=O)n1)-c1cnn(C)c1CCN2CC1CC1 [Compound 12]	–	–	–	–
100 to 1000 nM	< 10 nM	1 to 10 nM	< 10 nM	COc1cc2c(cc1Nc1ncc(Cl)c(Nc3ccc4nccnc4c3NS(C)(=O)=O)n1)-c1cnn(C)c1CCN2C(C)C [Compound 103]	–	–	–	–
100 to 1000 nM	< 10 nM	1 to 10 nM	10 to 50 nM	CCc1cnc(Nc2cc3c(cc2OC)N(C)CCc2c-3cnn2C)nc1Nc1ccccc1P(C)(C)=O [Compound 25]	–	–	–	–
100 to 1000 nM	< 10 nM	1 to 10 nM	10 to 50 nM	COc1cc2c(cc1Nc1ncc(Br)c(Nc3ccncc3P(C)(C)=O)n1)-c1cnn(C)c1CCN2C(C)C [Compound 97]	–	–	–	–
–	–	–	–	COc1cc2c(cc1Nc1ncc(Br)c(Nc3ccccc3P(C)(C)=S)n1)-c1cnn(C)c1CCN2C1CCN(C)CC1 [Compound 101]	100 to 1000 nM	< 10 nM	1 to 10 nM	< 10 nM
100 to 1000 nM	< 10 nM	10 to 50 nM	10 to 50 nM	COc1cc2c(cc1Nc1ncc(Br)c(Nc3ccccc3P(C)(C)=O)n1)-c1cnn(C)c1CC=C2 [Compound 40]	–	–	–	–
